Measurements taken from patent publication US4853403A, “3-phenylthiomethylstyrene derivative, process for preparing the same, and antiallergic agent and tyrosinekinase inhibiting agent containing the same” (Kanegafuchi Kagaku Kogyo Kabushiki Kaisha, priority 1985, dated 1989).

Experiments:
[1] = target: T1, epidermal growth factor acceptor-tyrosinekinase complex (Homo sapiens, UniProt P00533); test: Tyrosinekinase inhibitory activity (A-431 membrane specimen, EGF-stimulated, [γ-32P]ATP); format: biochemical, human (A-431 cell line derived from human cancerous cell); settings: read-out: Inhibition rate (tyrosinekinase)
T1 construct: endogenous in cells; host or cells: A-431 (membrane specimen, not solubilized)
Description: Tyrosinekinase inhibitory activity of the compound of the present invention was measured by employing a method for measuring tyrosinekinase activity by G. Carpentor or by S. Cohen et al. [J. Biol. Chem., 254, 4884 (1979); J. Biol. Chem., 257, 1523 (1982)].
Cell line A-431 derived from human cancerous cell was cultured at 37° C. under the condition of 5% CO2 in Dulbecco's modified Eagle medium (made by DAINIPPON PHARMACEUTICAL CO., LTD.) containing 10% fetal bovine serum, 50 μg/ml of streptomycin, 50 IU/ml of penicillin G and 50 μg/ml of canamycin. The obtained cells were treated according to the above Cohen or Graham et al. to give membrane specimen containing epidermal growth factor acceptor-tyrosinekinase complex (hereinafter referred to as "membrane specimen"). The membrane specimen was employed in the following measurement without solubilization.
Sample dissolved in dimethylsulfoxide was added to a mixture of 20 mM of N-2-hydroxyethylpyperadino-N'-2-ethanesulfonate buffer (pH 7.4), 1 mM of MnCl2, 7.5 μg of bovine serum albumin and the membrane specimen (10 μg as protein). After incubation at 0° C. for 5 minutes, 100 ng of epidermal growth factor (hereinafter referred to as "EGF" was added and the mixture was further incubated at 0° C. for 15 minutes. [γ-^32 P]ATP (3000 Ci/mmol, 0.1 μCi) was added to make final volume of 70 μl. After incubation at 0° C. for 15 minutes, 50 μl of the reaction solution was soaked into Wattman 3 MM filter paper and immediately the reaction was stopped by 10% trichloroacetic acid-10 mM sodium pyrophosphate aqueous solution. The filter paper was sufficiently washed with the same solution and then washed with ethanol and dried. Radioactivity present in the filter paper was measured by liquid scintillation counter (A). Similarly, radioactivity was measured in case of the reaction without EGF (B), the reaction without the sample (C), and the reaction without both EGF and the sample (D) as a control.
Tyrosinekinase inhibition rate (%) was calculated by the following equation. [formula]

[2] = tested on: antigen-induced anaphylactic shock death; test: Protective effect against anaphylactic shock in actively sensitized guinea pigs; format: in vivo, guinea pig (male); settings: Cavia porcellus; 100 mg/kg, oral, 30 minutes before antigen inhalation; survival 90 minutes or more; read-out: Protecting Effect (Number of test animal survivied/Number of test animal) (converted)
Description: [III] Protective effect against anaphylactic shock in actively sensitized guinea pigs
Antigen-induced anaphylactic shock death was observed according to John P. Devlin [Pulmonary and Antiallergic Drugs, John Wiley & Sons, 155 (1985)].
Each 100 mg/kg of ovalbumin dissolved in physiological saline was injected into peritoneal cavity and into gluteus of male guinea pigs weighing 250 to 350 g. 3 Days later, the animals were further injected intraperitoneally with ovalbumin (100 mg/kg). Those animals were employed for testing 3 to 4 weeks after first sensitization. Actively sensitized guinea pigs were pretreated subcutaneously with pyrilamine (1 mg/kg, 30 min.) to suppress histamine-dependent response and with propanolol ([…], 10 min.) to enhance the response induced by other than histamine before the antigen.
The animal was placed in a desiccator with a capacity of about 5 l and 0.5% aqueous solution of ovalbumin was inhaled with ultrasonic type nebulizer for five minutes. Anaphylactic shock death was observed and the animals survived for 90 minutes or more after antigen were estimated to be protected. The compounds of the present invention and antiasmatic agent were administered orally 30 minutes before the antigen inhalation. The control received vehicle alone similarly.

[3] = tested on: SRS-A biosynthesis or release; test: SRS-A biosynthesis or release inhibitory activity (ovalbumin-challenged sensitized guinea pig lung fragments, bioassay on guinea pig ileum); format: cell-based, guinea pig (male Hartley); settings: Cavia porcellus, read-out: Inhibition rate (SRS-A biosynthesis or release)
Description: [I] SRS-A biosynthesis or release inhibitory activity
SRS-A biosynthesis or release inhibitory activity was examined according to Koda et al. [Nippon yakurigakkaishi, 66, 194(1970)] and Kono-Watanabe et al. [J. Immunology, 125, 946(1980)].
Male Hartley guinea pigs weighing 350 to 450 g were sensitized by injecting once each 1 ml of an ovalbumin (100 mg/ml) into gluteus and peritoneal cavity. Four weeks after the injection, the animals were killed and then immediately the lung was perfused with cooled Tyrode's solution to remove blood. The lung was chopped into about 2 mm fragments and 500 mg of the fragments were suspended in 4.84 ml of Tyrode's solution, to which 0.01 ml of the test compound dissolved in dimethylsulfoxide (DMSO) was added. After incubation at 37° C. for 10 minutes, 0.15 ml of an ovalbumin (10 mg/ml) was added, followed by incubation at 37° C. for 20 minutes. In control, DMSO was added and the reaction was conducted in the same manner. The reaction mixture was filtered with gauze.
An amount of SRS-A in the filtrate was bioassayed using guinea pig ileum; i.e. the ileum (length: 2 to 3 cm) was suspended in Magnus tube containing aerated Tyrode's solution at 31° C. and, after the plateau of contraction was obtained, an amount of SRS-A in the above filtrate was bioassayed in the presence of 1 μM of atropine and 1 μM of pyrilamine. Inhibition rate (%) was calculated from a contraction in control as 100.

[4] = tested on: homologous passive cutaneous anaphylaxis (PCA); test: Inhibitory activity against homologous passive cutaneous anaphylaxis (PCA) in rats; format: in vivo, rat (male Wistar); settings: 100 mg/kg, oral, 1 hour before the antigen
Description: [II]Inhibitory activity against homologous passive cutaneous anaphylaxis (PCA) in rats
Antiserum was prepared according to I. Mota [Immunology, 7, 681(1964)] and the PCA reaction was conducted according to Maruyama et al. [Nippon yakurigakkaishi, 74, 179(1978)].
(1) Preparation of antiserum
An ovalbumin solution (2 mg/ml) was injected intramuscularly into both thighs of male Wistar rats weighing 200 to 260 g in a volume of 0.5 ml/100 g body weight, and pertussis vaccine (Bordetella pertussis, 2×10^10 /ml, Chibaken Kessei Kenkyujo) was intraperitoneally administered at 1 ml/rat. Twelve days later, blood was taken from posterior aorta under ether anesthesia and antiserum was stored at -80° C.
Group of 4 male Wistar rats weighing 180 to 210 g were employed. Back of the animals was shaved and each 0.05 ml of antiserum (1:32 dilution) was injected intradermally at four sites on the back. After 48 hours, 1 ml of a mixture of ovalbumin (1 mg/ml) and Evans blue (5 mg/ml) was injected intravenously into the tail. 30 Minutes later, the animals were killed under ether anesthesia. The blue-dyed area (mm^2) formed was measured and an inhibition rate(%) was calculated as compared with control.
Test compound suspended in a 2.5% acacia containing 0.2% Tween 80 was administered orally in a volume of 0.5 ml/100 g body weight 1 hour before the antigen. Tranilast was administered orally 30 minutes before the antigen.

T1 sequence (P00533 25-1210): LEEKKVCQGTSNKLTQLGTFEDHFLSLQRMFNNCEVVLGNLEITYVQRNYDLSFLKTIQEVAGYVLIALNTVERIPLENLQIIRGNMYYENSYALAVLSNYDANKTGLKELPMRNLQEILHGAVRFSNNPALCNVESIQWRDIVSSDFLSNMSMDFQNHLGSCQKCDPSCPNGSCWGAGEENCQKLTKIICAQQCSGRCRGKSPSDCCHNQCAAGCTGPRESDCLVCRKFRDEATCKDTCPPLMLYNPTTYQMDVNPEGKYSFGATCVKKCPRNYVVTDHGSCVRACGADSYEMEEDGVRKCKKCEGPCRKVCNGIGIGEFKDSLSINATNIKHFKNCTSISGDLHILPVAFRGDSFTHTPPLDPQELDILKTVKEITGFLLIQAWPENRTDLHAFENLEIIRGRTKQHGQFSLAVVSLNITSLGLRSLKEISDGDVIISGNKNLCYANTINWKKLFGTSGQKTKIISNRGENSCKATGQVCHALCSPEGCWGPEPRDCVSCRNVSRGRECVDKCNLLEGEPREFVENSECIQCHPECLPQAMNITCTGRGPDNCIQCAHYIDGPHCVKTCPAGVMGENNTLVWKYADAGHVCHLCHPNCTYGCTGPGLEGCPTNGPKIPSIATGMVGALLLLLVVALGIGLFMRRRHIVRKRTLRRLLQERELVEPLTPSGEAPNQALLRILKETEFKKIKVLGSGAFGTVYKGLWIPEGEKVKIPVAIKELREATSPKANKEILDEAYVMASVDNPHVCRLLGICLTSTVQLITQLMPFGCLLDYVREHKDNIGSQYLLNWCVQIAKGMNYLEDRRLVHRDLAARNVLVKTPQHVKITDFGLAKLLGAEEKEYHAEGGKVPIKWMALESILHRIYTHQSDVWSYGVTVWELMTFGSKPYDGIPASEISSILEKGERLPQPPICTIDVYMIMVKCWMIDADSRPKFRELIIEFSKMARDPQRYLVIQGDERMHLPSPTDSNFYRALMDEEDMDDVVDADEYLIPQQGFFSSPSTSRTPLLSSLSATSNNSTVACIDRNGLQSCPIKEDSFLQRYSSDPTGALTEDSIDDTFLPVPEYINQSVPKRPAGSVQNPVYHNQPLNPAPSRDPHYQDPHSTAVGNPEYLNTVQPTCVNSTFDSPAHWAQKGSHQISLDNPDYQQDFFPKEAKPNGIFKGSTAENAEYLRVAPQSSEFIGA
T1 sequence (P01132 977-1029 partner limits assumed): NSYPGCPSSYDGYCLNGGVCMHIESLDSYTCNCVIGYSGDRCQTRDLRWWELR

Compound | inhibition at 10 µM [1] [%] | inhibition at 100 µM [1] [%] | responders at 100 mg/kg [2] [%] | inhibition at 100 µM [3] [%] | Inhibition rate (PCA reaction, blue-dyed area) [4] [%]
CCOc1cc(C=C2CCNC2=O)cc(CSc2ccccc2)c1O [XXVII] | 96 | 100 | 75 | 100 | 25
CCOc1cc(C=C2C(=O)NN(c3ccccc3)C2=O)cc(CSc2ccccc2)c1O [XXXI] | 92 | 100 | 20 | 59 | 30
